For orientation: IC50 means the concentration at which inhibition is half-maximal. A low value points to inhibition by little substance.

The structures appear in SMILES notation. Structures can show the parent of a compound that is named as a salt.

For the experiment, the target named is KHK (Homo sapiens (Human), UniProt P50053). The experiment in a line: In Vitro KHK Enzyme Assay (HTMS detection of fructose-1-P). It is filed as biochemical. Conditions: 100 μM ATP, 2 nM KHK, 60 min at 25° C., 12-point dose-response.
KHK, sequence (P50053 whole entry): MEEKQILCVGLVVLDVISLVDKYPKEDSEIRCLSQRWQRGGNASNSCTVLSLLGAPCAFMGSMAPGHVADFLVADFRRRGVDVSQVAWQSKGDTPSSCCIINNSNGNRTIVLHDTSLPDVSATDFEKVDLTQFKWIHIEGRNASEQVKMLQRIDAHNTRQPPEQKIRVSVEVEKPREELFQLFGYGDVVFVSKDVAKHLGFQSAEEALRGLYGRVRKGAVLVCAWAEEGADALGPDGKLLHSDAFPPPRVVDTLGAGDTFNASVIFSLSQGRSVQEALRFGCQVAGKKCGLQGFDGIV

Method: An enzymatic assay was developed to measure KHK-mediated conversion of D-fructose to Fructose-1-P (F-1-P) using High Throughput Mass Spectroscopy (HTMS) as a means of product detection. This assay served as a primary screen to evaluate the ability to inhibit KHK enzyme activity and it has been adapted to high throughput mass spectrometry (HTMS, BioTrove RapidFire™) format for higher throughput.
The compounds to be tested were dosed in 12-points concentration from 511 μM to 0.5 μM. […] The assay was carried out in 384-well plate format.

Take `Cc1nn(-c2ccccc2)c2cc(N3CCC(N4CCNCC4)CC3)ccc12` [Compound 57, 3-Methyl-1-phenyl-6-(4-piperazin-1-yl-piperidin-1-yl)-1H-indazole hydrochloride]: the IC50 was found to be 3.2 µM.

These data come from patent US9771375B2, “Indazole compounds useful as ketohexokinase inhibitors” (JANSSEN PHARMACEUTICA NV, priority 2010, dated 2017).
